Our source for the Activity values is ChEMBL document CHEMBL4425094, “Novel Benzo[a]quinolizidine Analogs Induce Cancer Cell Death through Paraptosis and Apoptosis” (J Med Chem, 2016).

The test system of this experiment is PC-3M. Nature of the experiment: Antitumor activity against human PC3M-lluc-C6 cells xenografted in athymic Balb/c mouse assessed as tumor volume at 15 mg/kg, ip administered every 2 days for 18 days (reference value: 845.6 +/- 84.3 mm'3). In kind it is functional. In general terms: Xenograft models place foreign cells or tissue in a host animal.

As for `Cc1cc(C)cc(COc2cc3c(cc2OCc2cc(C)cc(C)c2)[C@@H]2C[C@H](O)C[C@@H](C)N2CC3)c1` (racemic), the Activity is reported as 410.2 mm3.
